± gives the expanded uncertainty stated by the source.
Conditions: Liquid

Structure (SMILES): CCCCO [butan-1-ol]
- mass density (313.08 K, 1006 kPa): 795.22 ± 0.46 kg/m3
- mass density (313.08 K, 2017 kPa): 796.08 ± 0.47 kg/m3
- mass density (313.08 K, 3007 kPa): 796.85 ± 0.47 kg/m3
- mass density (313.08 K, 4010 kPa): 797.64 ± 0.48 kg/m3
- mass density (313.08 K, 5016 kPa): 798.44 ± 0.49 kg/m3
- mass density (313.08 K, 6017 kPa): 799.22 ± 0.5 kg/m3
- mass density (313.08 K, 7011 kPa): 800 ± 0.5 kg/m3
- mass density (313.08 K, 8006 kPa): 800.77 ± 0.51 kg/m3
- mass density (313.08 K, 9019 kPa): 801.53 ± 0.52 kg/m3
- mass density (313.08 K, 10008 kPa): 802.27 ± 0.53 kg/m3
- mass density (313.08 K, 11014 kPa): 803.01 ± 0.54 kg/m3
- mass density (313.08 K, 12016 kPa): 803.73 ± 0.54 kg/m3
- mass density (313.08 K, 13016 kPa): 804.46 ± 0.55 kg/m3
- mass density (313.08 K, 14013 kPa): 805.18 ± 0.56 kg/m3
- mass density (313.08 K, 15010 kPa): 805.91 ± 0.57 kg/m3
- mass density (313.08 K, 16003 kPa): 806.58 ± 0.58 kg/m3
- mass density (313.08 K, 16999 kPa): 807.29 ± 0.59 kg/m3
- mass density (313.08 K, 17999 kPa): 807.98 ± 0.6 kg/m3
- mass density (313.08 K, 19024 kPa): 808.67 ± 0.61 kg/m3
- mass density (313.08 K, 20005 kPa): 809.33 ± 0.62 kg/m3
- mass density (313.08 K, 21013 kPa): 810.09 ± 0.62 kg/m3
- mass density (313.08 K, 22003 kPa): 810.75 ± 0.63 kg/m3
- mass density (313.08 K, 23024 kPa): 811.41 ± 0.64 kg/m3
- mass density (313.08 K, 24027 kPa): 812.09 ± 0.65 kg/m3
- mass density (313.08 K, 24234 kPa): 812.21 ± 0.65 kg/m3
- mass density (323.05 K, 999 kPa): 787.38 ± 0.46 kg/m3
- mass density (323.05 K, 2026 kPa): 788.22 ± 0.47 kg/m3
- mass density (323.05 K, 3007 kPa): 789.03 ± 0.48 kg/m3
- mass density (323.05 K, 4024 kPa): 789.91 ± 0.48 kg/m3
- mass density (323.05 K, 5012 kPa): 790.75 ± 0.49 kg/m3
- mass density (323.05 K, 6016 kPa): 791.57 ± 0.5 kg/m3
- mass density (323.05 K, 7023 kPa): 792.4 ± 0.51 kg/m3
- mass density (323.05 K, 8004 kPa): 793.16 ± 0.52 kg/m3
- mass density (323.05 K, 9009 kPa): 793.98 ± 0.53 kg/m3
- mass density (323.05 K, 10007 kPa): 794.78 ± 0.53 kg/m3
- mass density (323.05 K, 11004 kPa): 795.57 ± 0.54 kg/m3
- mass density (323.05 K, 11995 kPa): 796.32 ± 0.55 kg/m3
- mass density (323.05 K, 13007 kPa): 797.09 ± 0.56 kg/m3
- mass density (323.05 K, 14022 kPa): 797.85 ± 0.57 kg/m3
- mass density (323.05 K, 14989 kPa): 798.63 ± 0.58 kg/m3
- mass density (323.05 K, 16006 kPa): 799.33 ± 0.59 kg/m3
- mass density (323.05 K, 16998 kPa): 800.1 ± 0.6 kg/m3
- mass density (323.05 K, 18001 kPa): 800.84 ± 0.61 kg/m3
- mass density (323.05 K, 19025 kPa): 801.56 ± 0.62 kg/m3
- mass density (323.05 K, 19993 kPa): 802.28 ± 0.63 kg/m3
- mass density (323.05 K, 21032 kPa): 803.06 ± 0.64 kg/m3
- mass density (323.05 K, 22006 kPa): 803.74 ± 0.65 kg/m3
- mass density (323.05 K, 22993 kPa): 804.41 ± 0.66 kg/m3
- mass density (323.05 K, 24012 kPa): 805.16 ± 0.67 kg/m3
- mass density (323.05 K, 24418 kPa): 805.43 ± 0.67 kg/m3
- mass density (332.93 K, 1013 kPa): 779.33 ± 0.47 kg/m3
- mass density (332.93 K, 2026 kPa): 780.27 ± 0.47 kg/m3
- mass density (332.93 K, 3014 kPa): 781.21 ± 0.48 kg/m3
- mass density (332.93 K, 4006 kPa): 782.04 ± 0.49 kg/m3
- mass density (332.93 K, 5000 kPa): 782.91 ± 0.5 kg/m3
- mass density (332.93 K, 6013 kPa): 783.78 ± 0.51 kg/m3
- mass density (332.93 K, 6997 kPa): 784.6 ± 0.51 kg/m3
- mass density (332.93 K, 8003 kPa): 785.5 ± 0.52 kg/m3
- mass density (332.93 K, 9005 kPa): 786.32 ± 0.53 kg/m3
- mass density (332.93 K, 10001 kPa): 787.17 ± 0.54 kg/m3
- mass density (332.93 K, 10996 kPa): 787.97 ± 0.55 kg/m3
- mass density (332.93 K, 12003 kPa): 788.8 ± 0.56 kg/m3
- mass density (332.93 K, 12993 kPa): 789.62 ± 0.57 kg/m3
- mass density (332.93 K, 14001 kPa): 790.38 ± 0.58 kg/m3
- mass density (332.93 K, 15016 kPa): 791.22 ± 0.59 kg/m3
- mass density (332.93 K, 15998 kPa): 791.96 ± 0.6 kg/m3
- mass density (332.93 K, 16999 kPa): 792.72 ± 0.61 kg/m3
- mass density (332.93 K, 18009 kPa): 793.53 ± 0.62 kg/m3
- mass density (332.93 K, 18986 kPa): 794.29 ± 0.63 kg/m3
- mass density (332.93 K, 20043 kPa): 795.08 ± 0.64 kg/m3
- mass density (332.93 K, 21056 kPa): 795.87 ± 0.65 kg/m3
- mass density (332.93 K, 22040 kPa): 796.59 ± 0.66 kg/m3
- mass density (332.93 K, 23009 kPa): 797.3 ± 0.67 kg/m3
- mass density (332.93 K, 24001 kPa): 798.04 ± 0.68 kg/m3
- mass density (332.93 K, 24515 kPa): 798.46 ± 0.68 kg/m3
- mass density (342.86 K, 1026 kPa): 770.92 ± 0.47 kg/m3
- mass density (342.86 K, 2007 kPa): 771.87 ± 0.48 kg/m3
- mass density (342.86 K, 3003 kPa): 772.85 ± 0.49 kg/m3
- mass density (342.86 K, 4051 kPa): 773.84 ± 0.49 kg/m3
- mass density (342.86 K, 5008 kPa): 774.72 ± 0.5 kg/m3
- mass density (342.86 K, 6023 kPa): 775.59 ± 0.51 kg/m3
- mass density (342.86 K, 7010 kPa): 776.55 ± 0.52 kg/m3
- mass density (342.86 K, 8000 kPa): 777.42 ± 0.53 kg/m3
- mass density (342.86 K, 9001 kPa): 778.28 ± 0.54 kg/m3
- mass density (342.86 K, 10005 kPa): 779.2 ± 0.55 kg/m3
- mass density (342.86 K, 11006 kPa): 780.06 ± 0.56 kg/m3
- mass density (342.86 K, 12010 kPa): 780.9 ± 0.57 kg/m3
- mass density (342.86 K, 13033 kPa): 781.77 ± 0.58 kg/m3
- mass density (342.86 K, 14017 kPa): 782.62 ± 0.59 kg/m3
- mass density (342.86 K, 15001 kPa): 783.45 ± 0.6 kg/m3
- mass density (342.86 K, 16009 kPa): 784.29 ± 0.61 kg/m3
- mass density (342.86 K, 17016 kPa): 785.14 ± 0.62 kg/m3
- mass density (342.86 K, 17991 kPa): 785.93 ± 0.63 kg/m3
- mass density (342.86 K, 19023 kPa): 786.79 ± 0.64 kg/m3
- mass density (342.86 K, 19999 kPa): 787.57 ± 0.65 kg/m3
- mass density (342.86 K, 21000 kPa): 788.37 ± 0.66 kg/m3
- mass density (342.86 K, 22003 kPa): 789.15 ± 0.67 kg/m3
- mass density (342.86 K, 22989 kPa): 789.91 ± 0.68 kg/m3
- mass density (342.86 K, 24004 kPa): 790.69 ± 0.69 kg/m3
- mass density (342.86 K, 24621 kPa): 791.2 ± 0.7 kg/m3
- mass density (352.79 K, 1020 kPa): 762.66 ± 0.47 kg/m3
- mass density (352.79 K, 2014 kPa): 763.68 ± 0.48 kg/m3
- mass density (352.79 K, 3007 kPa): 764.68 ± 0.49 kg/m3
- mass density (352.79 K, 3998 kPa): 765.67 ± 0.5 kg/m3
- mass density (352.79 K, 4998 kPa): 766.69 ± 0.51 kg/m3
- mass density (352.79 K, 5997 kPa): 767.68 ± 0.52 kg/m3
- mass density (352.79 K, 7006 kPa): 768.64 ± 0.53 kg/m3
- mass density (352.79 K, 8005 kPa): 769.61 ± 0.54 kg/m3
- mass density (352.79 K, 9007 kPa): 770.53 ± 0.55 kg/m3
- mass density (352.79 K, 9997 kPa): 771.44 ± 0.56 kg/m3
- mass density (352.79 K, 11008 kPa): 772.38 ± 0.57 kg/m3
- mass density (352.79 K, 12000 kPa): 773.26 ± 0.58 kg/m3
- mass density (352.79 K, 13043 kPa): 774.22 ± 0.59 kg/m3
- mass density (352.79 K, 14002 kPa): 775.11 ± 0.6 kg/m3
- mass density (352.79 K, 15000 kPa): 775.98 ± 0.61 kg/m3
- mass density (352.79 K, 16000 kPa): 776.85 ± 0.62 kg/m3
- mass density (352.79 K, 16992 kPa): 777.72 ± 0.63 kg/m3
- mass density (352.79 K, 17988 kPa): 778.56 ± 0.64 kg/m3
- mass density (352.79 K, 18994 kPa): 779.41 ± 0.65 kg/m3
- mass density (352.79 K, 20012 kPa): 780.22 ± 0.66 kg/m3
- mass density (352.79 K, 21003 kPa): 781.04 ± 0.67 kg/m3
- mass density (352.79 K, 22010 kPa): 781.87 ± 0.69 kg/m3
- mass density (352.79 K, 22971 kPa): 782.68 ± 0.7 kg/m3
- mass density (352.79 K, 24021 kPa): 783.49 ± 0.71 kg/m3
- mass density (352.79 K, 24573 kPa): 783.95 ± 0.71 kg/m3
- mass density (362.67 K, 1043 kPa): 753.5 ± 0.48 kg/m3
- mass density (362.67 K, 2116 kPa): 754.77 ± 0.49 kg/m3
- mass density (362.67 K, 3026 kPa): 755.74 ± 0.5 kg/m3
- mass density (362.67 K, 4013 kPa): 756.82 ± 0.5 kg/m3
- mass density (362.67 K, 5024 kPa): 757.87 ± 0.51 kg/m3
- mass density (362.67 K, 6047 kPa): 758.93 ± 0.52 kg/m3
- mass density (362.67 K, 7014 kPa): 759.93 ± 0.53 kg/m3
- mass density (362.67 K, 8012 kPa): 760.98 ± 0.54 kg/m3
- mass density (362.67 K, 9025 kPa): 762.03 ± 0.56 kg/m3
- mass density (362.67 K, 10015 kPa): 762.94 ± 0.57 kg/m3
- mass density (362.67 K, 11002 kPa): 763.92 ± 0.58 kg/m3
- mass density (362.67 K, 12002 kPa): 764.89 ± 0.59 kg/m3
- mass density (362.67 K, 13011 kPa): 765.86 ± 0.6 kg/m3
- mass density (362.67 K, 14011 kPa): 766.84 ± 0.61 kg/m3
- mass density (362.67 K, 15014 kPa): 767.7 ± 0.62 kg/m3
- mass density (362.67 K, 16006 kPa): 768.67 ± 0.63 kg/m3
- mass density (362.67 K, 17009 kPa): 769.58 ± 0.64 kg/m3
- mass density (362.67 K, 18008 kPa): 770.48 ± 0.65 kg/m3
- mass density (362.67 K, 18993 kPa): 771.37 ± 0.67 kg/m3
- mass density (362.67 K, 19990 kPa): 772.21 ± 0.68 kg/m3
- mass density (362.67 K, 21007 kPa): 773.1 ± 0.69 kg/m3
- mass density (362.67 K, 21997 kPa): 773.96 ± 0.7 kg/m3
- mass density (362.67 K, 23014 kPa): 774.89 ± 0.71 kg/m3
- mass density (362.67 K, 24000 kPa): 775.58 ± 0.72 kg/m3
- mass density (362.67 K, 24563 kPa): 776.12 ± 0.73 kg/m3

Source: the NIST ThermoML archive (doi:10.1021/je700261b)
